Laboratory results taken from patent US20020026053A1, “Novel 3-(substituted) -2- indolinones compounds and use thereof as inhibitors of protein kinase activity” (priority 1997, published 2002).

Biological target: T1, EGFR (Homo sapiens, UniProt P00533)
T1 construct: endogenous in cells; host or cells: A431 cells (lysate, captured with SUMO1 anti-EGFR antibody)
Assay: Biochemical EGFR Assay
Parameters: concentration or dose not given beside the values
Conditions: protocol P.167
In short: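 Readout is ABTS absorbance at 410 nm after anti-phosphotyrosine and HRP-antibody detection of EGFR autophosphorylation. The kinase was immunocaptured from A431 lysate, exposed 30 min to test compound diluted 1:10 in TBS, then phosphorylated for 5 min with ATP/MnCl2 before an EDTA stop.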

T1 sequence (P00533 25-1210): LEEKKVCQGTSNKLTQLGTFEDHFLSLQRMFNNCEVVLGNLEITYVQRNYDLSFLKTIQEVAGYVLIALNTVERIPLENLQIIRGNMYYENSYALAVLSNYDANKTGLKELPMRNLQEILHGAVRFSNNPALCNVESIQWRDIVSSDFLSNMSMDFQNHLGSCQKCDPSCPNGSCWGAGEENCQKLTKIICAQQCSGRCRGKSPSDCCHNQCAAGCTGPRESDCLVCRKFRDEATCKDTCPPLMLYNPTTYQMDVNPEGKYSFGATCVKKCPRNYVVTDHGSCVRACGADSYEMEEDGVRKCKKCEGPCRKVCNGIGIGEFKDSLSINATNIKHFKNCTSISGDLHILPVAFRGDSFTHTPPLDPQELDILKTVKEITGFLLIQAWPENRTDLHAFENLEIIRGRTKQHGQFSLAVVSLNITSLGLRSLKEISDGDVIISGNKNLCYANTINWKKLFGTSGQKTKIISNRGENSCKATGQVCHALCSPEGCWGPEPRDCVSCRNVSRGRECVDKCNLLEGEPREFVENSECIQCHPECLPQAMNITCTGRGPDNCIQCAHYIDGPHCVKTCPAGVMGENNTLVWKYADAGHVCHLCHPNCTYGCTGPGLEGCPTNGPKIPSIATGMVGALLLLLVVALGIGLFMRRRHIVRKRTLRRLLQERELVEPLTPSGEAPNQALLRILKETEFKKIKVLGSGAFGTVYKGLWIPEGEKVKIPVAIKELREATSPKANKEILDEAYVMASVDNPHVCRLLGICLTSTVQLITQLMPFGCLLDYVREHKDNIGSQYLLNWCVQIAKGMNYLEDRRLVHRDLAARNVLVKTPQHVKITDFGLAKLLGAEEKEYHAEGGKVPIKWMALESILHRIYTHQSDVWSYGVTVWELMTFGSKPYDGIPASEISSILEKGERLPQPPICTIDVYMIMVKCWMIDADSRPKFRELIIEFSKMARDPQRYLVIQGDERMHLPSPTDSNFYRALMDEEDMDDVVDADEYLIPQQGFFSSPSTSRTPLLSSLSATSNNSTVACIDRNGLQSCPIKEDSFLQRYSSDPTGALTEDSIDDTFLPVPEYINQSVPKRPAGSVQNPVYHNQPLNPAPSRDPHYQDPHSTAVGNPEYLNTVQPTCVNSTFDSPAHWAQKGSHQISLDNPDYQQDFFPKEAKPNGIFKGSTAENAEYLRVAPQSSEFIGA

Row | SMILES | Biochem EGFR % Inhibition (P.167)
1 | O=C1Nc2ccc(S(=O)(=O)N3CCOCC3)cc2C1=Cc1cc(Br)cs1 [10740/F10] | 9.5%
2 | CCCCOc1ccc(C=C2C(=O)Nc3ccc(S(=O)(=O)N4CCOCC4)cc32)cc1 [10740/F11] | 5.4%
3 | O=C1Nc2ccc(CCCl)cc2C1=Cc1cnc2ccccc2c1 [10740/G02] | −9.4%
4 | O=C1Nc2ccc(CCCl)cc2C1=Cc1ccnc2ccccc12 [10740/G03] | 19.5%
5 | COC1CCCN1C=C1C(=O)Nc2ccc(CCCl)cc21 (centres unmarked) [10740/G04] | 7.6%
6 | O=C1Nc2ccc(CCCl)cc2C1=Cc1ccsc1 [10740/G05] | 18.7%
7 | O=C1Nc2ccc(CCCl)cc2C1=Cc1ccc2ccccc2n1 [10740/G06] | −1.2%
8 | Cn1cc(C=C2C(=O)Nc3ccc(CCCl)cc32)c2ccccc21 [10740/G07] | 27.9%
9 | Cc1[nH]c2ccccc2c1C=C1C(=O)Nc2ccc(CCCl)cc21 [10740/G08] | −9.1%
10 | O=C1Nc2ccc(CCCl)cc2C1=Cc1cc(Br)cs1 [10740/G10] | 1.9%
11 | CCCCOc1ccc(C=C2C(=O)Nc3ccc(CCCl)cc32)cc1 [10740/G11] | −3.4%
12 | Cc1c(Br)cc(Br)c2c1C(=Cc1cnc3ccccc3c1)C(=O)N2 [10740/H02] | −9.1%
13 | Cc1c(Br)cc(Br)c2c1C(=Cc1ccnc3ccccc13)C(=O)N2 [10740/H03] | 16.0%
14 | COC1CCCN1C=C1C(=O)Nc2c(Br)cc(Br)c(C)c21 (centres unmarked) [10740/H04] | −21.0%
15 | Cc1c(Br)cc(Br)c2c1C(=Cc1ccsc1)C(=O)N2 [10740/H05] | −4.4%
16 | Cc1c(Br)cc(Br)c2c1C(=Cc1ccc3ccccc3n1)C(=O)N2 [10740/H06] | 4.8%
17 | Cc1c(Br)cc(Br)c2c1C(=Cc1cn(C)c3ccccc13)C(=O)N2 [10740/H07] | −5.3%
18 | Cc1[nH]c2ccccc2c1C=C1C(=O)Nc2c(Br)cc(Br)c(C)c21 [10740/H08] | −24.3%
19 | Cc1c(Br)cc(Br)c2c1C(=Cc1cc(Br)cs1)C(=O)N2 [10740/H10] | −25.5%
20 | CCCCOc1ccc(C=C2C(=O)Nc3c(Br)cc(Br)c(C)c32)cc1 [10740/H11] | 0.9%
